Laboratory results taken from patent US20200268864A1, “CANCER VACCINE COMPOSITIONS AND METHODS FOR USING SAME TO TREAT CANCER” (Dana-Farber Cancer Institute, Inc., priority 2017, published 2020).
“Also recorded” adds a separate entry of the source.

Key:
PBM tumor-bearing mice [1] = test: Flow cytometry of tumor-infiltrating immune cells in PBM tumors; settings: mouse, in vivo
Procedure: (§1) Tumors were first mechanically disrupted by chopping, then chemically digested in collagenase buffer (8 mL DMEM, 0.1 mL 1M HEPES, 0.5 mL FBS, 0.2 mL Pen/Strep, 1 m, 10× collagenase/hyaluronidase (Stemcell Technologies), 0.2 mL of 1 mg/mL DNase I (Stemcell Technologies) at 37° C. for 45 min. Single-cell suspensions of spleen and lymph nodes were obtained by mashed through a 70 um strainer using the plunger of a 3 mL or 5 mL syringe. Single cells suspensions were treated with red blood lysis buffer (4 mL NH4Cl+1 mL PBS with 2% calf serum) and washed with FACS buffer. Single cells suspensions were incubated with LIVE/DEAD Fixable Aqua Dead Cell Stain (Life Technologies, Cat # L34965) for 30 min and then blocked with anti-CD16/32 (BioLegend, clone 93) for 20 min on ice. Samples were then incubated with appropriate antibodies for 30 min. on ice. The Foxp3 staining buffer set (eBioscience, Cat #00-5523-00) was applied for intracellular markers staining. For the intracellular cytokine analysis, cells were stimulated with Leukocyte Activation Cocktail (BD Biosciences, Cat #550583) at 37° C. for 5 hours prior to FACS staining. The following antibodies were used in the experiments and were purchased from BioLegend unless otherwise indicated: CD45 (clone 30-F11), TCRβ (clone H57-597), CD4 (clone RM4-5), CD8 (clone 53-6.7), CD44 (clone IM7), CD62L (MEL-14), CD25 (PC61), IFNγ (clone XMG1.2), TNFα(clone MP6-XT22), PD-1 (clone 29F.1A12), Tim-3 (clone RMT3-23), LAG-3 (clone C9B7W), CD11b (clone M1/70), CD11c (clone […]), F4/80 (clone BM8), Gr-1 (clone RB6-BC5), Ly-6C (clone HK1.4), Ly-6G (clone 1A8), MHCII (clone M5/114.15.2), CD80 (clone 16-10A1), CD86 (clone GL-1), MHC1 (clone KH114). FoxP3 (clone FJK-16 s; eBioscience), Phospho-IRF-3 (Ser396) (clone D6O1M, Cell signaling technology), Phospho-TBK1/NAK (Ser172) (clone D52C2, Cell signaling technology), and LIVE/DEAD® Fixable Aqua Dead Cell Stain Kit (Life Technologies Cat L34965). Flow cytometry was performed on an LSR II (BD Biosciences) or LSRFortessa™ HTS (BD Biosciences) at the DFCI flow cytometry core facility, and all the data were analyzed using FlowJo software.

PBM tumor-bearing mice [2] = test: Flow cytometry of peripheral blood and splenic immune cells; settings: mouse, in vivo
Procedure: as §1

PBM tumor-bearing mice [3] = test: Cytokine array of plasma/sera; format: in vivo, mouse; settings: day 2 of treatment
Procedure: (§2) Blood was obtained by retro-orbital sampling at intermediate time points or experimental end points. Blood cells and plasma/sera were separated by centrifugation at 1,500×g for 5 min. at 4° C. Plasmaisera were sent out to Eve Technologies for cytokine array analysis (Chemokine Array 31-Plex and Mouse Procarta IFN 2-plex Featured Assay). Plasma/sera were applied to ELISA according to manufacturer's instructions. For in vitro experiments, cell culture supernatants were obtained by centrifugation at 1,500×g for 5 min. at 4° C. to remove all debris and cells, and were then subjected to ELISA analysis. IFN-β was detected using the LEGEND MAX™ Mouse IFN-β ELISA Kit (BioLegend).

[4] = tested on: STING pathway in PBM tumors; test: STING pathway activation in PBM tumors (p-TBK1/p-IRF3 flow cytometry, IFN-β/CXCL10 RT-qPCR); format: in vivo, mouse; settings: for phosphorylation of TBK1 and IRF3 in intratumoral DCs and macrophages: PBM tumors
Procedure: as §1, with “FoxP3 (clone FJK-16 s; eBioscience), Phospho-IRF-3 (Ser396) (clone D6O1M, Cell signaling technology), Phospho-TBK1/NAK (Ser172) (clone D52C2, Cell signaling technology), and LIVE/DEAD® Fixable Aqua Dead Cell Stain Kit (Life Technologies Cat L34965).” left out, “software. […]” for “software.”

[5] = tested on: STING pathway in BMDCs co-cultured with PBM cells; test: Co-culture of BMDCs with olaparib-treated PBM tumor cells; format: cell-based, mouse
Procedure: as §2
(§3) Bone marrow cells were isolated from FVB/NJ mice and cultured in RPMI-1640 containing 10% FBS and 20 ng/ml GM-CSF. BMDCs (bone marrow derived dendritic cells) were harvested for in vitro co-culture assay on day 7 to day 10. About 3×10^5 PBM or PPM tumor cells were cultured in a 6-well plate for 24 hr. and then treated with DMSO or olaparib. After 24 hr incubation with DMSO, olaparib, or olaparib in combination with other drugs (cell cycle inhibitor or apoptosis inhibitor), drugs were removed and tumor cells were washed twice with PBS. BMDCs were added and co-cultured with PBM or PPM cells at a ratio of 1:1 in 1.5 ml culture media in the presence of GM-CSF (20 ng/ml) and lipofectamine (2 μl) for 24 hr. Co-cultured cells were harvested for flow cytometry analysis and floating cells (percentage of BMDCs is about 90%), or RNA analysis. Cell culture supernatants were collected for detection of IFN-β with the ELISA kit. BMDCs generated from C57BL/6J mice were applied for the coculture of BMDCs with ID8 tumor cells. Human dendritic cells purchased from Lonza were used for the coculture of human DCs with DMSO or olaparib-treated human ovarian cancer cells ([…] and UWB1.289+BRCA1).
About 50 to 100 mg of tumor samples were homogenized in 1 ml of TRIzol™ Reagent supplied with 200 μl of stainless steel beads and 0.2 ml of chloroform was added to the samples. Samples were vortexed vigorously for 15 seconds and then incubated at room temperature for 2 to 3 minutes. After centrifugation at 12,000×g for 15 minutes at 4° C., upper aqueous phase of the samples was carefully removed to a new tube and the total RNA was purified using an RNeasy® Mini Kit (Qiagen) according to manufactory's instruction. For the in vitro cultured cell samples, total RNA was isolated using an RNeasy® Mini Kit. The qPCR was performed on an Applied Biosystems 7300 machine after the total RNA was reverse transcribed to cDNA using the SuperScript® III First-Strand Synthesis System (Invitrogen). Primers used for qPCR were as follows: […]

[6] = tested on: human DCs co-cultured with UWB1.289; test: Co-culture of human DCs with olaparib-treated UWB1.289 cells; format: cell-based; settings: BRCA1-deficient UWB1.289
Procedure: as §3

Q: Which results are given for `O=C(c1cc(Cc2n[nH]c(=O)c3ccccc23)ccc1F)N1CCN(C(=O)C2CC2)CC1` [olaparib, Olaparib]?
A: CD80, CD86 and MHC class II expression on tumor associated DCs (PBM tumor-bearing mice [1]): increased levels; CD103+ DCs at the tumor site (PBM tumor-bearing mice [1]): increased; IFNγ and TNFα production by intratumoral CD4+ and CD8+ T cells (PBM tumor-bearing mice [1]): significantly increased the production; PD-1/TIM-3 and PD-1/Lag3 co-expression (exhausted state) on intratumoral CD8+ T cells (PBM tumor-bearing mice [1]): reduced expression; also recorded: reduced the exhausted state; effector CD8+ T cells in malignant ascites of the peritoneal cavity (PBM tumor-bearing mice [1]): Increase; frequency of intratumoral FoxP3+ Treg (PBM tumor-bearing mice [1]): not changed; immune cell (CD45+) infiltration into tumor (PBM tumor-bearing mice [1]): Increased; intratumoral MDSC cells (CD11b+Gr1+; gMDSC) (PBM tumor-bearing mice [1]): reduced; number of intratumoral CD4+ and CD8+ T cells (PBM tumor-bearing mice [1]): significantly increased; also recorded: increased the number; intratumoral MDSC cells (CD11b+Gr1+; gMDSC) (PBM tumor-bearing mice [1]; listed as Olaparib): decrease; IFN gamma and TNF alpha production by peripheral blood CD8+ T cells (PBM tumor-bearing mice [2]): enhanced; expression of PD-1, Tim3, and Lag3 co-inhibitory receptors on splenic CD8+ T cells (PBM tumor-bearing mice [2]): reduced; gMDSC and mMDSC in the peripheral blood (PBM tumor-bearing mice [2]): decreased; number of CD8+ T cells in the spleens (PBM tumor-bearing mice [2]): significantly increased; number of MDSCs in the spleens (PBM tumor-bearing mice [2]): significantly reduced; plasma/sera cytokine levels (CXCL9, CXCL10, IFNβ and others) (PBM tumor-bearing mice [3]): significant increase; also recorded: increased levels of multiple cytokines; plasma/sera cytokine levels (CXCL9, CXCL10, IFNβ and others) (PBM tumor-bearing mice [3]; listed as Olaparib): changes on the levels of various cytokines; phosphorylation of TBK1 and IRF3 in intratumoral DCs and macrophages [4]: increased pTBK1+p-IRF3+; phosphorylation of TBK1 and IRF3 in intratumoral DCs and macrophages ([4]; listed as Olaparib): increased phosphorylation; IFN-β and CXCL10 expression in PBM tumor tissues ([4]; RT-qPCR): induction; also recorded: Increased expression; phosphorylation of TBK1 and IRF3 (p-TBK1+p-IRF3+) in BMDCs ([5]; co-cultured with olaparib-treated PBM cells vs DMSO): increased phosphorylation; IFN-β and CXCL10 expression in BMDCs ([5]; co-cultured with olaparib-treated vs non-treated/DMSO PBM cells, mRNA and protein): Significantly enhanced expression; also recorded: markedly increased expression; levels of p-TBK1+p-IRF3+ and IFN-β in human DCs [6]: Increased levels
